In the NIST ThermoML archive (doi:10.1021/je700428f):
Numbers after ± are expanded uncertainties.

Assay: xn = mol fraction of the nth substance listed
Settings: 101 kPa, Liquid; for viscosity: Capillary tube (Ostwald / Ubbelohde) method

CCCCCCCCC [nonane] + COC(C)(C)C
Settings | mass density [kg/m3] | viscosity [mPa·s]
273.15 K, x2 = 0 | 733.184 ± 0.57 | 0.972 ± 0.01
273.15 K, x2 = 0.1006 | – | 0.912 ± 0.01
273.15 K, x2 = 0.1085 | 734.69 ± 0.57 | –
273.15 K, x2 = 0.1722 | 735.67 ± 0.57 | –
273.15 K, x2 = 0.2026 | – | 0.85 ± 0.01
273.15 K, x2 = 0.2995 | – | 0.796 ± 0.01
273.15 K, x2 = 0.3037 | 737.89 ± 0.56 | –
273.15 K, x2 = 0.4011 | 739.94 ± 0.55 | –
273.15 K, x2 = 0.4045 | – | 0.74 ± 0.009
273.15 K, x2 = 0.5003 | – | 0.688 ± 0.009
273.15 K, x2 = 0.5008 | 742.31 ± 0.55 | –
273.15 K, x2 = 0.6005 | 745.08 ± 0.54 | –
273.15 K, x2 = 0.6035 | – | 0.632 ± 0.009
273.15 K, x2 = 0.6992 | 748.17 ± 0.54 | –
273.15 K, x2 = 0.6998 | – | 0.586 ± 0.009
273.15 K, x2 = 0.7975 | – | 0.54 ± 0.009
273.15 K, x2 = 0.8005 | 751.89 ± 0.54 | –
273.15 K, x2 = 0.8925 | 755.81 ± 0.54 | –
273.15 K, x2 = 0.8971 | – | 0.491 ± 0.009
278.15 K, x2 = 0 | 729.335 ± 0.58 | 0.896 ± 0.01
278.15 K, x2 = 0.1006 | – | 0.842 ± 0.01
278.15 K, x2 = 0.1085 | 730.78 ± 0.57 | –
278.15 K, x2 = 0.1722 | 731.71 ± 0.57 | –
278.15 K, x2 = 0.2026 | – | 0.787 ± 0.01
278.15 K, x2 = 0.2995 | – | 0.738 ± 0.009
278.15 K, x2 = 0.3037 | 733.82 ± 0.56 | –
278.15 K, x2 = 0.4011 | 735.78 ± 0.56 | –
278.15 K, x2 = 0.4045 | – | 0.689 ± 0.009
278.15 K, x2 = 0.5003 | – | 0.641 ± 0.009
278.15 K, x2 = 0.5008 | 738.04 ± 0.55 | –
278.15 K, x2 = 0.6005 | 740.68 ± 0.55 | –
278.15 K, x2 = 0.6035 | – | 0.591 ± 0.009
278.15 K, x2 = 0.6992 | 743.64 ± 0.55 | –
278.15 K, x2 = 0.6998 | – | 0.549 ± 0.009
278.15 K, x2 = 0.7975 | – | 0.505 ± 0.009
278.15 K, x2 = 0.8005 | 747.2 ± 0.54 | –
278.15 K, x2 = 0.8925 | 750.95 ± 0.55 | –
278.15 K, x2 = 0.8971 | – | 0.46 ± 0.009
283.15 K, x2 = 0 | 725.473 ± 0.59 | 0.828 ± 0.01
283.15 K, x2 = 0.1006 | – | 0.78 ± 0.01
283.15 K, x2 = 0.1085 | 726.84 ± 0.58 | –
283.15 K, x2 = 0.1722 | 727.73 ± 0.58 | –
283.15 K, x2 = 0.2026 | – | 0.731 ± 0.009
283.15 K, x2 = 0.2995 | – | 0.687 ± 0.009
283.15 K, x2 = 0.3037 | 729.73 ± 0.57 | –
283.15 K, x2 = 0.4011 | 731.59 ± 0.56 | –
283.15 K, x2 = 0.4045 | – | 0.643 ± 0.009
283.15 K, x2 = 0.5003 | – | 0.598 ± 0.009
283.15 K, x2 = 0.5008 | 733.74 ± 0.56 | –
283.15 K, x2 = 0.6005 | 736.26 ± 0.55 | –
283.15 K, x2 = 0.6035 | – | 0.554 ± 0.009
283.15 K, x2 = 0.6992 | 739.08 ± 0.55 | –
283.15 K, x2 = 0.6998 | – | 0.514 ± 0.009
283.15 K, x2 = 0.7975 | – | 0.474 ± 0.009
283.15 K, x2 = 0.8005 | 742.47 ± 0.55 | –
283.15 K, x2 = 0.8925 | 746.06 ± 0.55 | –
283.15 K, x2 = 0.8971 | – | 0.433 ± 0.009
288.15 K, x2 = 0 | 721.603 ± 0.59 | 0.768 ± 0.009
288.15 K, x2 = 0.1006 | – | 0.726 ± 0.009
288.15 K, x2 = 0.1085 | 722.9 ± 0.59 | –
288.15 K, x2 = 0.1722 | 723.73 ± 0.58 | –
288.15 K, x2 = 0.2026 | – | 0.681 ± 0.009
288.15 K, x2 = 0.2995 | – | 0.641 ± 0.009
288.15 K, x2 = 0.3037 | 725.62 ± 0.57 | –
288.15 K, x2 = 0.4011 | 727.39 ± 0.57 | –
288.15 K, x2 = 0.4045 | – | 0.6 ± 0.009
288.15 K, x2 = 0.5003 | – | 0.56 ± 0.009
288.15 K, x2 = 0.5008 | 729.43 ± 0.56 | –
288.15 K, x2 = 0.6005 | 731.81 ± 0.56 | –
288.15 K, x2 = 0.6035 | – | 0.52 ± 0.009
288.15 K, x2 = 0.6992 | 734.49 ± 0.56 | –
288.15 K, x2 = 0.6998 | – | 0.484 ± 0.009
288.15 K, x2 = 0.7975 | – | 0.446 ± 0.009
288.15 K, x2 = 0.8005 | 737.72 ± 0.55 | –
288.15 K, x2 = 0.8925 | 741.13 ± 0.56 | –
288.15 K, x2 = 0.8971 | – | 0.407 ± 0.009
293.15 K, x2 = 0 | 717.725 ± 0.6 | 0.716 ± 0.009
293.15 K, x2 = 0.1006 | – | 0.677 ± 0.009
293.15 K, x2 = 0.1085 | 718.92 ± 0.59 | –
293.15 K, x2 = 0.1722 | 719.72 ± 0.59 | –
293.15 K, x2 = 0.2026 | – | 0.637 ± 0.009
293.15 K, x2 = 0.2995 | – | 0.601 ± 0.009
293.15 K, x2 = 0.3037 | 721.51 ± 0.58 | –
293.15 K, x2 = 0.4011 | 723.16 ± 0.57 | –
293.15 K, x2 = 0.4045 | – | 0.564 ± 0.009
293.15 K, x2 = 0.5003 | – | 0.526 ± 0.009
293.15 K, x2 = 0.5008 | 725.09 ± 0.57 | –
293.15 K, x2 = 0.6005 | 727.34 ± 0.57 | –
293.15 K, x2 = 0.6035 | – | 0.489 ± 0.009
293.15 K, x2 = 0.6992 | 729.87 ± 0.56 | –
293.15 K, x2 = 0.6998 | – | 0.455 ± 0.009
293.15 K, x2 = 0.7975 | – | 0.418 ± 0.009
293.15 K, x2 = 0.8005 | 732.94 ± 0.56 | –
293.15 K, x2 = 0.8925 | 736.17 ± 0.56 | –
293.15 K, x2 = 0.8971 | – | 0.384 ± 0.009
298.15 K, x2 = 0 | 713.834 ± 0.6 | 0.669 ± 0.009
298.15 K, x2 = 0.1006 | – | 0.634 ± 0.009
298.15 K, x2 = 0.1085 | 714.95 ± 0.6 | –
298.15 K, x2 = 0.1722 | 715.7 ± 0.59 | –
298.15 K, x2 = 0.2026 | – | 0.598 ± 0.009
298.15 K, x2 = 0.2995 | – | 0.564 ± 0.009
298.15 K, x2 = 0.3037 | 717.36 ± 0.59 | –
298.15 K, x2 = 0.4011 | 718.92 ± 0.58 | –
298.15 K, x2 = 0.4045 | – | 0.529 ± 0.009
298.15 K, x2 = 0.5003 | – | 0.496 ± 0.009
298.15 K, x2 = 0.5008 | 720.73 ± 0.58 | –
298.15 K, x2 = 0.6005 | 722.84 ± 0.57 | –
298.15 K, x2 = 0.6035 | – | 0.461 ± 0.009
298.15 K, x2 = 0.6992 | 725.22 ± 0.57 | –
298.15 K, x2 = 0.6998 | – | 0.43 ± 0.009
298.15 K, x2 = 0.7975 | – | 0.396 ± 0.009
298.15 K, x2 = 0.8005 | 728.11 ± 0.57 | –
298.15 K, x2 = 0.8925 | 731.18 ± 0.57 | –
298.15 K, x2 = 0.8971 | – | 0.363 ± 0.009
303.15 K, x2 = 0 | 709.929 ± 0.61 | 0.628 ± 0.009
303.15 K, x2 = 0.1006 | – | 0.596 ± 0.009
303.15 K, x2 = 0.1085 | 710.96 ± 0.6 | –
303.15 K, x2 = 0.1722 | 711.66 ± 0.6 | –
303.15 K, x2 = 0.2026 | – | 0.563 ± 0.009
303.15 K, x2 = 0.2995 | – | 0.532 ± 0.009
303.15 K, x2 = 0.3037 | 713.21 ± 0.59 | –
303.15 K, x2 = 0.4011 | 714.65 ± 0.59 | –
303.15 K, x2 = 0.4045 | – | 0.498 ± 0.009
303.15 K, x2 = 0.5003 | – | 0.468 ± 0.009
303.15 K, x2 = 0.5008 | 716.34 ± 0.58 | –
303.15 K, x2 = 0.6005 | 718.32 ± 0.58 | –
303.15 K, x2 = 0.6035 | – | 0.436 ± 0.009
303.15 K, x2 = 0.6992 | 720.55 ± 0.57 | –
303.15 K, x2 = 0.6998 | – | 0.408 ± 0.009
303.15 K, x2 = 0.7975 | – | 0.377 ± 0.009
303.15 K, x2 = 0.8005 | 723.25 ± 0.57 | –
303.15 K, x2 = 0.8925 | 726.13 ± 0.57 | –
308.15 K, x2 = 0 | – | 0.59 ± 0.009
308.15 K, x2 = 0.1006 | – | 0.56 ± 0.009
308.15 K, x2 = 0.2026 | – | 0.531 ± 0.009
308.15 K, x2 = 0.2995 | – | 0.502 ± 0.009
308.15 K, x2 = 0.4045 | – | 0.47 ± 0.009
308.15 K, x2 = 0.5003 | – | 0.443 ± 0.009
308.15 K, x2 = 0.6035 | – | 0.413 ± 0.009
